These molecules were tested against T1, Prostaglandin G/H synthase 1 (Ovis aries, UniProt P05979) (assay: Inhibition of Ovis aries (sheep) COX1 using arachidonic acid as substrate using cyclic naphthalene hydrazide by chemiluminescence assay).
T1 sequence (P05979 whole entry): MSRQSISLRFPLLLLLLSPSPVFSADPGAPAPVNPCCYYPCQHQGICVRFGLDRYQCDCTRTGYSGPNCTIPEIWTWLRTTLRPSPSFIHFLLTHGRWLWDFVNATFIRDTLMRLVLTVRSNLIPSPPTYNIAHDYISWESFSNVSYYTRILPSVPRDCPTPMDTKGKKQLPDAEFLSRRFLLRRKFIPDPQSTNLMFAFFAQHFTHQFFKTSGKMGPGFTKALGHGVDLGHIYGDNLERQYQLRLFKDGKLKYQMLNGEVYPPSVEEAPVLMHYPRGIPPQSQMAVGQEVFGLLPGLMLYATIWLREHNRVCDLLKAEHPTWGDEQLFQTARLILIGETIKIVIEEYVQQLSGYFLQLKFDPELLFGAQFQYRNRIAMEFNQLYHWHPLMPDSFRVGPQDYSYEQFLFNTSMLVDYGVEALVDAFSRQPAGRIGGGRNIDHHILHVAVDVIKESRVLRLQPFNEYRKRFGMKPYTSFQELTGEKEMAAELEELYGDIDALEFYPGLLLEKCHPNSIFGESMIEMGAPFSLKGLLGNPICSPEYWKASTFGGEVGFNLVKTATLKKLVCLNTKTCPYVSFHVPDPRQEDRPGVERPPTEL

Structure (SMILES) | IC50
CC(=O)Nc1ccc(-c2nc(-c3ccc(S(C)(=O)=O)cc3)c(-c3ccccc3)[nH]2)cc1 | 10.4 µM
CS(=O)(=O)c1ccc(-c2nc(-c3ccc(O)cc3)[nH]c2-c2ccccc2)cc1 | 11.3 µM
CS(=O)(=O)c1ccc(-c2nc(-c3ccc(Cl)cc3)[nH]c2-c2ccccc2)cc1 | 10.1 µM
CS(=O)(=O)c1ccc(-c2nc(-c3ccccc3)[nH]c2-c2ccccc2)cc1 | 9.9 µM

Results, then the molecule that gave them:

IC50 | Structure (SMILES)
10.6 µM | COc1ccc(-c2nc(-c3ccc(S(C)(=O)=O)cc3)c(-c3ccccc3)[nH]2)cc1
10.4 µM | Cc1ccc(-c2nc(-c3ccc(S(C)(=O)=O)cc3)c(-c3ccccc3)[nH]2)cc1
11.1 µM | CS(=O)(=O)c1ccc(-c2nc(-c3ccc(F)cc3)[nH]c2-c2ccccc2)cc1

Reference: ChEMBL document CHEMBL3046048, “Design and synthesis of new 2,4,5-triarylimidazole derivatives as selective cyclooxygenase (COX-2) inhibitors” (Med Chem Res, 2012)
